Data on 26 compounds can be found in patent publication US20080280891A1, “Anti-cancer agents and uses thereof” (Locus Pharmaceuticals, Inc., priority 2006, published 2008).

By IC50 is commonly meant the point on the concentration scale where inhibition reaches its midpoint. Low readings indicate greater potency in that assay, high ones weaker potency in that assay.

Holding throughout (format): cell-based
The subject of test [1] is MCF-7 breast cancer cells. The test can be described thus: Cell cycle assay (Example 163), G2/M block in MCF-7 cells. To be noted: flow cytometry (PI), Table 2; for activation at 1 µM: Homo sapiens, MCF7, 24 h. The protocol: (§1) MCF-7 breast cancer cells and Jurkat T-cell leukemic cells were grown (and maintained) in EMEM and RPMI media, respectively, containing 10% fetal calf serum.
Cells were allowed to adhere for 24 hrs. After adherence, cell culture media was changed to that containing 0.5% FCS. Thirty minutes post-media change, test compounds were added at a concentration of 1 μM. Twenty-fours after test agent addition, cells were analyzed for cell cycle status as described below.
(§2) Cell cycle status was analyzed by flow cytometry. Briefly, cells were collected and washed with FACs buffer (Pharmingen) and resuspended and fixed in 1 mL of 80% ethanol for 1 hr. Cells were washed with FACs buffer and resuspended in propidium iodide(PI)/RNase staining buffer (Pharmingen). PI is a fluorescent dye that labels nucleic acids such as DNA. The fluorescence within a cell (in the presence of PI) is proportional to the amount of DNA within a cell. The cell content of DNA is an indices of status in the cell cycle. […] Cells in the S phase have DNA content that lies between these extremes.
(§3) For testing of cell cycle effects of test agents the percentage of cells within the G1 and G2/M phase were measured.
A general note: A flow cytometer gives signals particle by particle.

In test [2] the test system is Jurkat T-cell leukemic cells. Briefly: Cell cycle assay (Example 163), G2/M block in Jurkat cells. Particulars: 24 h, flow cytometry (PI), Table 2; for activation at 0.1 µM: Homo sapiens, Jurkat. Here is the method:
as §1
Test agents were added a concentration of 0.1 μM. Twenty-fours after test agent addition, cells were analyzed for cell cycle status as described below.
as §2, §3

The next test deals with Hela cells. Briefly: Cell viability assay (WST-1), Hela cells. Particulars: WST-1, 48-72 hrs, 0.5% fetal calf serum. The protocol:
(§4) Jurkat and Hela cells were cultured in RPMI and EMEM media, respectively, containing 0.5% fetal calf serum. Cells were plated in a volume of 100 μL in a 96 well format. Test compounds were included in the culture media at concentrations ranging from 1 nM to 10 μM for a period of 48-72 hrs. Cell viability was determined using the WST-1 calorimetric mitochondrial reduction assay. Briefly, 10 μL of WST-1 reagent was included in the culture well for a period of 1 to 4 hrs. The WST-1 reaction was read on a multiwell spectrophotometer as the difference in the absorbance between 450 nm and 600 nm (baseline). Absorbance was proportional to the number of living cells in the culture well. Concentration response curves and IC50 values were calculated using GraphPAD Prism graphing and curve fitting program.
In general terms: Tetrazolium dyes change colour on reduction, which living cells bring about.

In the next test the test system is Jurkat cells. The test can be described thus: Cell viability assay (WST-1), Jurkat cells. Particulars: Homo sapiens, WST-1, 48-72 hrs, 0.5% fetal calf serum. Here is the method:
as §4

The test system of test [3] is MCF-7 breast cancer cells. Briefly: Cell cycle assay (Example 164), G2/M block in MCF-7 cells. To be noted: 24 h, flow cytometry (PI); for activation at 0.1 µM: Homo sapiens, MCF7, Table 4. The protocol:
(§5) The adherent MCF-7 breast cancer cells and NCI-H522 non small cell lung cancer cells were grown and maintained in EMEM cell culture media containing 10% fetal calf serum.
(§6) Cells were allowed to adhere for 24 hrs. After adherence, cell culture media was changed to that containing 0.5% FCS. Thirty minutes post-media change, test compounds were added at a concentration of either 1.0 or 0.1 μM (as specified in the Tables). Twenty-four hours after test agent addition, cells were analyzed for cell cycle status as described below.
as §2, with “indicator” for “indices”
as §3

Test [4] has as its system NCI-H522 non small cell lung cancer cells. Briefly: Cell cycle assay (Example 164), G2/M block in NCI-H522 cells. To be noted: Homo sapiens, 0.1 μM, 24 h, flow cytometry (PI). Here is the method:
as §5, §6
as §2, with “indicator” for “indices”
as §3

Bounds are passed on as bounds.

Turning to `COc1cc(-c2cccc3[nH]ccc23)nc(Nc2cccnc2)n1` [[4-(1H-Indol-4-yl)-6-methoxy-pyrimidin-2-yl]-pyridin-3-ylamine], the activation at 1 µM in test [1] was below 50%. Also, the activation at 0.1 µM in test [2] is below 50%. The compound further displayed an IC50 with Hela cells (Homo sapiens, HeLa) of 1 to 30 µM.
As for `CC(O)(c1cccnc1)c1cc(O)cc(-c2cccc3[nH]ccc23)c1` (stereo not drawn) [3-(1-Hydroxy-1-pyridin-3-yl-ethyl)-5-(1H-indol-4-yl)-phenol], the IC50 with Jurkat cells lay within 1 to 30 µM; in the test with Hela cells (Homo sapiens, HeLa), 0.001 to 0.999 µM. The compound also yielded an activation at 0.1 µM in test [2] below 50%.
In turn, `Oc1cc(-c2cccc3[nH]ccc23)nc(Nc2cccnc2)n1` [6-(1H-Indol-4-yl)-2-(pyridin-3-ylamino)-pyrimidin-4-ol] showed an activation at 0.1 µM in test [2] of at least 50%. The IC50 in the test with Hela cells (Homo sapiens, HeLa) lay within 1 to 30 µM.
For the compound `Cn1ccc2cccc(-c3cc(O)cc(Nc4cccnc4)c3)c21` [3-(1-Methyl-1H-indol-7-yl)-5-(pyridin-3-ylamino)-phenol], the IC50 in the test on Jurkat cells is 1 to 30 µM; in the test on Hela cells (Homo sapiens, HeLa) it was above 3 µM. The same compound returned an activation at 0.1 µM in test [2] below 50%.
For the compound `Oc1cc(Nc2cccnc2)cc(-c2ccc3c(c2)CCC3)c1` [3-Indan-5-yl-5-(pyridin-3-ylamino)-phenol], the IC50 with Hela cells (Homo sapiens, HeLa) was 1 to 30 µM.
Regarding `Oc1cc(Nc2cccnc2)cc(-c2ccc3c(c2)OCO3)c1` [3-Benzo[1,3]dioxol-5-yl-5-(pyridin-3-ylamino)-phenol], the IC50 in the test with Jurkat cells is 1 to 30 µM; in the test on Hela cells (Homo sapiens, HeLa) it was above 3 µM. In addition, in test [2], the activation at 0.1 µM was below 50%.
The compound `O=C(c1cccnc1)c1cc(O)cc(-c2cccc3[nH]cc(C(=O)C(F)(F)F)c23)c1` [2,2,2-Trifluoro-1-{4-[3-hydroxy-5-(pyridine-3-carbonyl)-phenyl]-1H-indol-3-yl}-ethanone] gave an activation at 1 µM in test [1] below 50%. The same compound showed an activation at 0.1 µM in test [2] below 50%. This compound registered an IC50 in the test on Hela cells (Homo sapiens, HeLa) of 1 to 30 µM.
For `O=C(c1ccc(O)nc1)c1cc(O)cc(-c2cccc3[nH]ccc23)c1` [[3-Hydroxy-5-(1H-indol-4-yl)-phenyl]-(6-hydroxypyridin-3-yl)-methanone], the IC50 in the test on Jurkat cells fell in the range of 1 to 30 µM; in the test with Hela cells (Homo sapiens, HeLa), 0.001 to 0.999 µM. In test [2], this compound displayed an activation at 0.1 µM below 50%.
Take `[O-][n+]1cccc(Nc2cc(O)cc(-c3cccc4[nH]ccc34)c2)c1` [3-(1H-Indol-4-yl)-5-(1-oxy-pyridin-3-ylamino)-phenol]: the “MCF-7 G2/M Block 1 μM” value in test [1] (24 h) is given as “Y (Y indicates a 50% or greater increase in the number of cells in the G2/M phase, as compared to control)”. Also, the “Jurkat G2/M Block 0.1 μM” value in test [2] is “Y (Y indicates a 50% or greater increase in the number of cells in the G2/M phase, as compared to control)”. Also, in the test with Hela cells, the IC50 lay within 0.001 to 0.999 µM.
`O=[N+]([O-])c1ccc2ccn(-c3cc(O)cc(Nc4cccnc4)c3)c2c1` [3-(6-Nitro-indol-1-yl)-5-(pyridin-3-ylamino)-phenol] had an activation at 0.1 µM in test [2] of at least 50%. This compound gave an IC50 in the test with Hela cells (Homo sapiens, HeLa) of 0.001 to 0.999 µM.
As for `COc1ccc(COc2cc(Nc3cccnc3)cc(-c3cccc4sccc34)c2)cc1` [[3-Benzo[b]thiophen-4-yl-5-(4-methoxy-benzyloxy)-phenyl]-pyridin-3-yl-amine], the IC50 with Jurkat cells was in the range of 1 to 30 µM; in the test on Hela cells (Homo sapiens, HeLa) it was 1 to 30 µM.
In turn, `Oc1cc(Nc2cccnc2)cc(-c2cccc3c2CCC3)c1` [3-Indan-4-yl-5-(pyridin-3-ylamino)-phenol] gave an activation at 1 µM in test [1] below 50%. Further, in test [2], the activation at 0.1 µM was below 50%. For the same compound, the IC50 with Hela cells (Homo sapiens, HeLa) is 1 to 30 µM.
For `ON=C(c1cccnc1)c1cc(O)cc(-c2cccc3[nH]ccc23)c1` [[3-Hydroxy-5-(1H-indol-4-yl)-phenyl]-pyridin-3-yl-methanone oxime], in test [1], the activation at 1 µM was below 50%. This compound displayed an activation at 0.1 µM in test [2] below 50%. Further, in the test with Hela cells (Homo sapiens, HeLa), the IC50 fell in the range of 1 to 30 µM.
In the case of `Oc1cc(Nc2cccnc2)cc(-c2cccc3cccnc23)c1` [3-(Pyridin-3-ylamino)-5-quinolin-8-yl-phenol], the activation at 1 µM in test [1] is below 50%. Also, the activation at 0.1 µM in test [2] is below 50%. Also, the IC50 in the test on Hela cells (Homo sapiens, HeLa) is 1 to 30 µM.
In turn, `O=C(c1ccc(Cl)nc1)c1cc(O)cc(-c2cccc3[nH]ccc23)c1` [(6-Chloro-pyridin-3-yl)-[3-hydroxy-5-(1H-indol-4-yl)-phenyl]-methanone] displayed an activation at 1 µM in test [1] below 50%. In addition, in test [2], the activation at 0.1 µM is at least 50%. The same compound had an IC50 with Hela cells (Homo sapiens, HeLa) of 0.001 to 0.999 µM.
For the compound `COC(=O)Nc1cc(-c2nc3ccccc3o2)cc(-c2cccc3[nH]ccc23)c1` [[3-Benzoxazol-2-yl-5-(1H-indol-4-yl)-phenyl]-carbamic acid methyl ester], the activation at 0.1 µM in test [3] and in test [4] (Table 4) was at least 50% each time.
Take `CS(=O)(=O)Nc1cc(-c2ccnc(N)n2)cc(-c2cccc3[nH]ccc23)c1` [N-[3-(2-Amino-pyrimidin-4-yl)-5-(1H-indol-4-yl)-phenyl]-methanesulfonamide]: the activation at 0.1 µM in test [3] and in test [4] (Table 4) was at least 50% throughout.
Regarding `Cc1cc(C(=O)c2cc(NS(C)(=O)=O)cc(-c3cccc4[nH]ccc34)c2)cc(N(C)C)n1` [N-[3-(2-Dimethylamino-6-methyl-pyridine-4-carbonyl)-5-(1H-indol-4-yl)-phenyl]-methanesulfonamide], the activation at 0.1 µM in test [3] and in test [4] (Table 4) was at least 50% in each case.
For the compound `COC(=O)Nc1cc(C(=O)c2cc(C)nc(C#N)c2)cc(-c2cccc3[nH]ccc23)c1` [[3-(2-Cyano-6-methyl-pyridine-4-carbonyl)-5-(1H-indol-4-yl)-phenyl]-carbamic acid methyl ester], the activation at 0.1 µM in test [3] and in test [4] (Table 4) was at least 50% in each case.
As to `Oc1cc(Nc2cccnc2)cc(-c2cccc(-c3ccccc3)c2)c1` [5-(Pyridin-3-ylamino)-[1,1′;3′,1″]terphenyl-3-ol], the IC50 with Hela cells (Homo sapiens, HeLa) fell in the range of 1 to 30 µM.
Take `N#Cc1ccc2c(ccn2-c2cc(O)cc(Nc3cccnc3)c2)c1` [1-[3-Hydroxy-5-(pyridin-3-ylamino)-phenyl]-1H-indole-5-carbonitrile]: in test [1], the activation at 1 µM was below 50%. Also, the activation at 0.1 µM in test [2] was at least 50%. In the test on Hela cells (Homo sapiens, HeLa), this compound showed an IC50 of 1 to 30 µM.
In the case of `CS(=O)(=O)Nc1cc(C(=O)c2ccnc(N3CCOCC3)c2)cc(-c2cccc3[nH]ccc23)c1` [N-[3-(1H-Indol-4-yl)-5-(2-morpholin-4-yl-pyridine-4-carbonyl)-phenyl]-methanesulfonamide], the activation at 0.1 µM in test [3] and in test [4] (Table 4) was at least 50% each time.
Take `CC(=O)Nc1cc(C(=O)c2cc(C)nc(N3CCOCC3)c2)cc(-c2cccc3[nH]ccc23)c1` [N-[3-(1H-Indol-4-yl)-5-(2-methyl-6-morpholin-4-yl-pyridine-4-carbonyl)-phenyl]-acetamide]: the activation at 0.1 µM in test [3] and in test [4] (Table 4) was at least 50% each time.
In the case of `CS(=O)(=O)Nc1cc(-c2ccnc(Cl)c2)cc(-c2cccc3[nH]ccc23)c1` [N-[3-(2-Chloro-pyridin-4-yl)-5-(1H-indol-4-yl)-phenyl]-methanesulfonamide], the activation at 0.1 µM in test [3] and in test [4] (Table 4) was at least 50% throughout.
Turning to `Oc1cc(Nc2ccccn2)cc(-c2cccc3[nH]ccc23)c1` [3-(1H-Indol-4-yl)-5-(pyridin-2-ylamino)-phenol], the activation at 1 µM in test [1] is below 50%. The activation at 0.1 µM in test [2] is at least 50%. In the test with Hela cells (Homo sapiens, HeLa), the IC50 was 0.001 to 0.999 µM.
Consider `N#Cc1ccc(Nc2cc(O)cc(-c3cccc4[nH]ccc34)c2)cc1` [4-[3-Hydroxy-5-(1H-indol-4-yl)-phenylamino]-benzonitrile], for which, in test [3] (1 μM, Table 3), the “MCF-7 G2/M Block 1 μM” value was “N (N indicates a less than 50% increase at this dose)”. This compound also showed an activation at 0.1 µM in test [4] (Table 3) of at least 50%.
